Measured values taken from US20140323575A1, “TYROSINE ISOMERS AS THERAPEUTIC AGENTS” (CONSEJO NACIONAL DE INVESTIGACIONES CIENTIFICAS Y TECNICAS …, priority 2011, published 2014).
“Also recorded” adds a separate entry of the source.

Legend:
CEI tumor cells = experiment: In vitro proliferation of CEI tumor cells; format: cell-based; settings: dose-dependent, not shown
LB tumor = experiment: In vivo growth of s.c. LB tumor implants (primary, secondary under CR, established, ascitic); set-up: species or system mice; settings: for growth of LB tumor implant: inoculated at the site of a primary tumor implant or systemically, daily for 8 days
Description: Twenty mice received an s.c. implant of 1×10^6 LB cells in the right flank, and, 7 days later, an s.c. secondary implant of 1×10^5 LB tumor cells in the left flank. […] The remaining 10 mice received 0.2 mL of phenylalanine (500 μg/mL) at the site of the secondary implant, daily, for 8 days, starting 1 hour after the secondary inoculum [CR+Phe (-□-)]. Controls were 10 mice receiving 1×10^5 LB tumor cells in the left flank only [control (-Δ-)]. A fourth group received the tumor inoculum in the left flank but also meta-tyrosine at the site of tumor implant (0.2 mL of 500 μg/mL, n=10) or by the intraperitoneal route (0.5 mL of 1,000 μg/mL, n=6), daily, for 8 days, starting 1 hour after tumor inoculum [control+m-Tyr: (-▴-)]. A fifth group received the tumor inoculum in the left flank and also meta-tyrosine (0.2 mL of 500 μg/mL, n=5) at the site of tumor growth, daily for 5 days, starting (see arrow) when LB was an established tumor measuring 60 to 70 mm^3 [est. LB+m-Tyr: (-X-)]. Abscissa, days after tumor implant in the left flank. Ordinate, volume of the tumors implanted in the left flank. CR and control+m-Tyr versus control: P<0.001 at day 9 and P<0.002 at days 5 and 7; CR and control+m-Tyr versus CR+Phe: P<0.001 at days 5, 7 and […]; est. LB+m-Tyr versus control and CR+Phe: P<0.002 at day 9. Control+tyrosine or saline, control; CR+tyrosine or saline, CR. FIG. 6B is a microscopic view showing many tumor cells expressing Ki-67 protein in both CR+phenylalanine (B1) and control (B2) groups and few tumor cells expressing Ki-67 in both CR (B3) and control+meta-tyrosine (B4) groups (H×400). FIG. 6C illustrates a representative experiment showing the frequency distribution histogram of viable LB cells from a control tumor (C1), from a secondary tumor inhibited by CR (C2), and from a tumor inhibited by periodic intraumoral injection of meta-tyrosine (C3). Samples of tumor cells were collected 9 days after the s.c. inoculation of 1×10^5 LB tumor cells.

MC-C tumor = experiment: In vivo growth of s.c. MC-C fibrosarcoma implants; set-up: species or system mice; settings: for effect on growth of MC-C tumor implants: mouse, in vivo
Description: Twelve mice received a s.c. implant of 5×10^6 MC-C tumor cells in the right flank and 25 days later they received a secondary implant of 2×10^6 MC-C tumor cells in the left flank. […] The remaining 6 mice received 0.2 ml of phenylalanine (500 μg/ml) at the site of the secondary implant, daily, for 19 days, starting 1 hour later than the secondary implant. These secondary implants grew as in 6 controls only receiving the implant in the left flank (tumor volumes of secondary tumor+phenylalanine and of controls, 20 days after the implant in the left flank were =680±152 mm^3 and 524±88 mm^3, respectively). […] Significance: Secondary tumor vs. control: p<0.01; vs. secondary tumor+phenylalanine: p<0.02. Control+m-tyrosine vs. control and vs. secondary tumor+phenylalanine: p<0.02.

C7HI tumor metastases = experiment: Spontaneous metastases of C7HI mammary adenocarcinoma in vivo; set-up: species or system mice
Description: FIG. 7A illustrates an experiment in which mice bearing a C7HI tumor for 50 days received, between days 50 and 64, a daily intravenous injection of meta-tyrosine (0.3 mL of 1,000 μg/mL) or saline. Mice were sacrificed at day 50 (n=8, before treatment, primary tumor volume 241±16 mm^3) or at day 65 for treated (n=12, primary tumor volume 1,080±101 mm^3) or control (n=12, primary tumor volume 1,091±88 mm^3) mice, and number and size of macroscopic metastases were determined; d=diameter of metastases in mm; a, P<0.05 (Mann-Whitney U test and Student t test) versus control. […] H&E, hematoxylin and eosin.
Mice bearing a C7HI tumor for 50 days received, between days 50 and 71, a daily intravenous injection of 1.0 mg of meta-tyrosine diluted in 0.1 ml of saline, or saline only. Mice were sacrificed ad day 50 (n=12, before treatment) or at day 71 for treated (n=12) or control (n=12) mice, and number and size of macroscopic metastases were determined; d=diameter of metastases in mm.
C7HI is a breast carcinoma that generates a high number of pulmonary and hepatic metastases, the number of pulmonary metastases being higher than the number of hepatic metastases. In this experiment, 36 mice received one implant each of 5×10^5 tumor C7HI cells. 50 days after implanting the tumor cells, 12 mice were sacrificed for evaluating the number and size of pulmonary and hepatic metastases. The remaining 24 mice were divided in two groups of 12 mice each. The experimental group received 1.0 mg of meta-tyrosine diluted in 0.1 ml of saline per mouse per day. […] The second group (control) received in 0.1 ml of saline per mouse per day. After 21 days of treatment, all mice were sacrificed and the number and size of the metastases were evaluated. […] This inhibitory activity was reflected not only in that the number of metastases of both groups was the same, and in some cases lower, as compared with the number of metastases at the beginning of the treatment (as estimated by the data produced by the 12 mice sacrificed before starting the treatments), but also in that their size was either the same or smaller. This is remarkable because of the 12 experimental mice, there was one showing a low response to the treatment. Should the values measured in this particular mouse be excluded from the pool, the number of metastases at day 71 in the experimental group would have been less than half the number of metastases observed before the start of the treatment at day 50.

[1] = 1.0 mg per mouse per day, intravenous, 21 days

SMILES	in vitro proliferation of CEI tumor cells (CEI tumor cells)	effect on established s.c. LB tumors (LB tumor; at site of tumor growth, daily for 5 days, tumor 60 to 70 mm^3 at start)	expression of Ki-67 protein in tumor cells (LB tumor; control+m-tyrosine tumors or secondary implants treated with phenylalanine (FIG. 6B))	growth of LB tumor implant (LB tumor)	tumor growth when treatment was interrupted (LB tumor; mouse, in vivo)	cell-cycle distribution of LB tumor cells (LB tumor; tumor inhibited by exogenous injection (FIG. 6C))	tumor volume 20 days after the implant in the left flank (MC-C tumor; MC-C implant in left flank only, 0.2 ml of 500 μg/ml daily for 19 days at the site of the implant)	effect on growth of MC-C tumor implants (MC-C tumor)	difference between size of primary tumors at day 71, experimental versus controls (C7HI tumor metastases; 1.0 mg daily intravenous, days 50 to 71)	growth of microscopic metastases (C7HI tumor metastases; [1])	hepatic metastases at day 71 (C7HI tumor metastases; [1])	growth of established macroscopic pulmonary metastases (C7HI tumor metastases; 1.0 mg per mouse per day, intravenous, 21 days (days 50-71))	primary tumor volume at day 65 (C7HI tumor metastases; daily intravenous 0.3 mL of 1,000 μg/mL, days 50 to 64)	established spontaneous C7HI lung metastases (C7HI tumor metastases; daily intravenous 0.3 mL of 1,000 μg/mL, days 50 to 64 (FIG. 7), listed as m-tyrosine)	effect on C7HI metastases, experiment repeated with orto-tyrosine (C7HI tumor metastases; mouse, in vivo)
NC(Cc1cccc(O)c1)C(=O)O (stereo not drawn) [meta-tyrosine, 3-hydroxyphenylalanine]	inhibited	inhibitory	low expression of Ki-67	did not grow	could reassume their growth	a decrease in G2-M phases and an increase of the S phase population	212±57 mm^3	sharp inhibitory effects	not significant	prevented growth	no metastases were detected	prevented the growth	1,080±101 mm^3	less metastatic foci; also recorded: sharp inhibitory effects	–
NC(Cc1ccccc1O)C(=O)O (stereo not drawn) [ortho-tyrosine, 2-hydroxyphenylalanine]	inhibited	–	–	inhibitory	–	–	–	inhibitory	–	–	–	–	–	–	inhibitory effect
